“Also recorded” adds a separate entry of the source. Where no end group is shown, it is not given here. TMR = tetramethylrhodamine dye
T1: TMR-E2F2^TD peptide (human)
T1 chain: {TMR}-QDDYLWGLEAGEGISDLFD

B1: phosphorylated Rb^NP (residues 55-787, Δ245-267, Δ582-642, phosphorylated by Cdk2-CycA) (domain or fragment, UniProt P06400 55-787, looked up)
chain: PDFTALCQKLKIPDHVRERAWLTWEKVSSVDGVLGGYIQKKKELWGICIFIAAVDLDEMSFTFTELQKNIEISVHKFFNLLKEIDTSTKVDNAMSRLLKKYDVLFALFSKLERTCELIYLTQPSSSISTEINSALVLKVSWITFLLAKGEVLQMEDDLVISFQLMLCVLDYFIKLSPPMLLKEPYKTAVIENDTRIIEVLCKEHECNIDEVKNVYFKNFIPFMNSLGLVTSNGLPEVENLSKRYEEIYLKNKDLDARLFLDHDKTLQTDSIDSFETQRTPRKSNLDEEVNVIPPHTPVRTVMNTIQQLMMILNSASDQPSENLISYFNNCTVNPKESILKRVKDIGYIFKEKFAKAVGQGCVEIGSQRYKLGVRLYYRVMESMLKSEEERLSIQNFSKLLNDNIFHMSLLACALEVVMATYSRSTSQNLDSGTDLSFPWILNVLNLKAFDFYKVIESFIKAEGNLTREMIKHLERCEHRIMESLAWLSDSPLFDLIKQSKDREGKSTSLSLFYKKVYRLAYLRLNTLCERLLSEHPELEHIIWTLFQHTLQNEYELMRDRHLDQIMMCSMYGICKVKNIDLKFKIIVTAYKDLPHAVQETFKRVLIKEEEYDSIIVFYNSVFMQRLKTNILQYASTRPPTLSPIPHIPR
modifications: quantitative phosphorylation on two sites (the construct contains the two sites T356 and T373)
B2: unphosphorylated Rb^NP (Rb N-terminal domain and pocket domain, residues 55-787, Δ245-267, Δ582-642) (domain or fragment, UniProt P06400 55-787, looked up)
chain: B1 chain
B3: E7 protein: full length HPV E7 protein (protein)
chain: MHGDTPTLHEYMLDLQPETTDLYCYEQLNDSSEEEDEIDGPAGQAEPDRAHYNIVTFCCKCDSTLRLCVQSTHVDIRTLEDLLMGTLGIVCPICSQKP

Legend:
Rb = details: LxCxE-like peptides; cited from earlier work
[1] = molecular target: phosphorylated Rb^NP–E2F^TMR (Homo sapiens, UniProt P06400, DEL245-267/DEL582-642); assay: FP EC50 measurement of Rb activation; assay type: biochemical; details: 20 nM phosphorylated Rb^NP, 10 nM E2F^TMR, Figure 3b
[2] = molecular target: E2F2 transactivation domain peptide (E2FTMR) 409-428 (UniProt Q14209); assay: fluorescence polarization, single concentration, 384-well; details: reference: unphosphorylated RbNP; sites T356,T373
TMR-E2F2^TD peptide = molecular target: T1, TMR-E2F2^TD peptide; assay: fluorescence polarisation
[3] = test system: Rb Q736A/K740A docking interface mutant; assay: E2F^TD binding to Rb with mutated docking interface; assay type: biochemical; details: Supporting Information Figure 3

Molecule | affinity for Rb (in words) (Rb) | effect in the Rb activation assay (in words) [1] | FP ratio (TMR-E2F2^TD peptide) [FP ratio] | further results
MEHQLLCCEVETIRRAY [cyclin D] | weak affinity | do not show activity; also recorded: no effect |  | 
Rb (retinoblastoma protein; RbNP construct) 55-787 (from UniProt P06400) Cdk2–CycA phosphorylated RbNP |  |  |  | other: FP ratio [2]: weaker; reference ~165
TDLEASLLSFEKLDRAphosSPDLWPE [LIN52] | weak affinity | do not show activity; also recorded: no effect |  | 
B1 |  |  | ~60 | 
B2 |  |  | ~165 | 
B3 |  |  |  | effect on E2F^TD binding to Rb with mutated docking interface [3]: do not affect E2F^TD binding to Rb

Reference: publication PMC5117131 (ACS chemical biology, 2016)
